The values that follow come from PubChem BioAssay (NCI).

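Where inhibition never reached the appropriate level, the endpoint shown equals the highest concentration tested. Otherwise, values were interpolated linearly from a five-concentration, 48-hour dose response in 96-well plates. At the GI50, growth is halved. TGI is the concentration that stops growth completely.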

Among the test systems are MDA-MB-231 breast; NCI-H226 lung; U251 CNS; DU-145 prostate; OVCAR-4 ovarian; KM12 colon; OVCAR-8 ovarian; NCI-H23 lung; HCC-2998 colon; SR leukemia.
What all share (assay): NCI-60 cell line screen, 48 h

In the case of `Nc1nc(N)c(N=Nc2ccc([As](=O)(O)O)c(O)c2)c(N)n1`, the TGI was greater than 100 µM in the assay on MDA-MB-231 breast; greater than 100 µM in the assay with NCI-H226 lung; greater than 100 µM with U251 CNS; 38.1 µM in the assay on DU-145 prostate; greater than 100 µM in the assay on OVCAR-4 ovarian; greater than 100 µM in the assay with KM12 colon. In addition, the TGI with OVCAR-8 ovarian and in the assay with NCI-H23 lung was greater than 100 µM each time.

As to `CCCCCCCCCCCC(=O)[O][Sn]([CH2]CCC)([CH2]CCC)[CH2]CCC`, the GI50 was 0.0317 µM with MDA-MB-231 breast; 0.0442 µM in the assay with U251 CNS; 0.0544 µM in the assay on DU-145 prostate; less than 0.0212 µM in the assay on OVCAR-4 ovarian; 0.0357 µM in the assay on KM12 colon; 0.0842 µM in the assay with OVCAR-8 ovarian. The GI50 in the assay with NCI-H23 lung is 0.0312 µM; in the assay with HCC-2998 colon it was 0.0669 µM. In addition, the TGI came to 0.113 µM in the assay on MDA-MB-231 breast; 0.125 µM with U251 CNS; 0.17 µM in the assay on DU-145 prostate; 0.153 µM in the assay with OVCAR-4 ovarian; 0.117 µM with KM12 colon; 0.363 µM in the assay on OVCAR-8 ovarian. Also, the figures for the TGI with NCI-H23 lung and in the assay on HCC-2998 colon were 0.145 µM and 0.187 µM, respectively.

Turning to `Cc1cc(=O)[nH]c2c1C(=O)C(=O)C=C2`, the GI50 with MDA-MB-231 breast was 21.2 µM; in the assay on NCI-H226 lung, 28.6 µM; with U251 CNS, 23.8 µM; with DU-145 prostate, 25 µM; in the assay on OVCAR-4 ovarian, 25.6 µM; in the assay on OVCAR-8 ovarian it was 32.7 µM. The GI50 is 21.9 µM with NCI-H23 lung and greater than 100 µM in the assay with HCC-2998 colon. The TGI in the assay on MDA-MB-231 breast came out at 45.2 µM; with NCI-H226 lung it was 73 µM; with U251 CNS, 63.5 µM; in the assay on DU-145 prostate, 53.9 µM; in the assay on OVCAR-4 ovarian it was 63.4 µM; in the assay on OVCAR-8 ovarian, 73.9 µM. The figures for the TGI in the assay with NCI-H23 lung and in the assay with HCC-2998 colon were 48.3 µM and greater than 100 µM, respectively.

For the compound `Fc1cccc(C2SCc3nc4ccccc4n32)c1` (stereo not given), the TGI in the assay on NCI-H226 lung, in the assay with SR leukemia, in the assay with KM12 colon, in the assay with OVCAR-8 ovarian, with NCI-H23 lung and in the assay with HCC-2998 colon was greater than 100 µM throughout.

Take `Cc1cc2c(C=O)[nH]nc2c(C#N)c1C`: the TGI in the assay on U251 CNS, in the assay on OVCAR-4 ovarian, in the assay on KM12 colon, with OVCAR-8 ovarian, in the assay with NCI-H23 lung and with HCC-2998 colon was greater than 100 µM each time.

With `N=C(N)c1ccc(-c2ccc(-c3ccccc3)o2)o1`, the GI50 with MDA-MB-231 breast was 2.04 µM; with NCI-H226 lung, 5.7 µM; in the assay with U251 CNS, 2.22 µM; with DU-145 prostate it was 3.3 µM; in the assay with OVCAR-4 ovarian, 3.48 µM; in the assay on KM12 colon, 2.61 µM. Moreover, the results for the GI50 in the assay on OVCAR-8 ovarian, in the assay on NCI-H23 lung and with HCC-2998 colon were 4 µM, 5.78 µM and 1.61 µM, respectively. Also, the TGI is 4.9 µM in the assay with MDA-MB-231 breast; 24.2 µM in the assay with NCI-H226 lung; 5.12 µM in the assay on U251 CNS; 11.6 µM with DU-145 prostate; 14.5 µM in the assay with OVCAR-4 ovarian; 9.93 µM in the assay on KM12 colon. The results for the TGI in the assay with OVCAR-8 ovarian, with NCI-H23 lung and with HCC-2998 colon were 16.9 µM, 19.8 µM and 3.25 µM, respectively.

As for `COc1cc(C2C(C(=O)Nc3ccccc3C)=C(C)NC(C)=C2C(=O)Nc2ccccc2C)ccc1O`, the TGI in the assay on NCI-H226 lung, in the assay with U251 CNS, in the assay with OVCAR-4 ovarian, in the assay with KM12 colon, in the assay with OVCAR-8 ovarian and in the assay on NCI-H23 lung was greater than 100 µM in each case. The compound further showed a TGI in the assay on HCC-2998 colon greater than 100 µM.

`O=C(O)c1cccc(F)c1C(=O)c1ccc2ccccc2c1`: the TGI in the assay with MDA-MB-231 breast, with NCI-H226 lung, in the assay with U251 CNS, in the assay with OVCAR-4 ovarian, with KM12 colon and in the assay with OVCAR-8 ovarian was greater than 100 µM throughout.

`O=C1OC(=O)C2C1C1(c3ccccc3)OC2(c2ccccc2)c2c(Br)c(Br)c(Br)c(Br)c21` (stereo not given): the TGI with NCI-H226 lung, with U251 CNS, with OVCAR-4 ovarian, with KM12 colon, in the assay with OVCAR-8 ovarian and in the assay on NCI-H23 lung was greater than 100 µM in each case.

As for `COc1cc(Nc2nccc(-c3cnn4ncccc34)n2)cc(OC)c1`, the GI50 in the assay on MDA-MB-231 breast is 0.0751 µM; in the assay with NCI-H226 lung it was 0.0577 µM; in the assay with U251 CNS it was 0.075 µM; in the assay with DU-145 prostate, 0.0724 µM; in the assay with OVCAR-4 ovarian, 0.268 µM; in the assay with KM12 colon it was 0.0349 µM. Besides, the GI50 was 0.0802 µM with OVCAR-8 ovarian, 0.0579 µM in the assay on NCI-H23 lung and 0.104 µM in the assay with HCC-2998 colon. The TGI in the assay on MDA-MB-231 breast is greater than 11.9 µM; in the assay on NCI-H226 lung, 0.324 µM; in the assay on U251 CNS, 2.46 µM; in the assay on DU-145 prostate it was 2.82 µM; in the assay with OVCAR-4 ovarian, 1.35 µM; with KM12 colon it was 0.272 µM. Moreover, the results for the TGI in the assay with OVCAR-8 ovarian, in the assay with NCI-H23 lung and in the assay on HCC-2998 colon were greater than 12.7 µM, 0.586 µM and 1.71 µM, respectively.

With `CCOC(=O)/C(C#N)=C/c1[nH]c(C)c(C)c1C`, the TGI in the assay on NCI-H226 lung, in the assay on U251 CNS, in the assay with OVCAR-4 ovarian, in the assay with KM12 colon, in the assay with OVCAR-8 ovarian and with NCI-H23 lung was greater than 100 µM in each case. In addition, the TGI with HCC-2998 colon was greater than 100 µM.

As for `COc1ccc2c(C(=O)NCCCCCC(=O)O)cc3cc4c(cc3c2c1)OCO4`, the GI50 with MDA-MB-231 breast is 99.5 µM; in the assay with NCI-H226 lung it was 83.5 µM; in the assay on U251 CNS, greater than 100 µM; in the assay on DU-145 prostate, greater than 100 µM; in the assay with KM12 colon, greater than 100 µM; with OVCAR-8 ovarian, greater than 100 µM. In addition, the GI50 in the assay with NCI-H23 lung and in the assay with HCC-2998 colon was greater than 100 µM throughout. The TGI in the assay on MDA-MB-231 breast, in the assay on NCI-H226 lung, in the assay on U251 CNS, with DU-145 prostate, in the assay with KM12 colon and in the assay with OVCAR-8 ovarian was greater than 100 µM in each case. Moreover, the TGI with NCI-H23 lung and with HCC-2998 colon was greater than 100 µM in each case.
